Data reported in patent US6869957B1, “Non-peptide tachykinin receptor antagonists” (Eli Lilly and Company, priority 1993, dated 2005).

Tests used:
[1] = biological target: T1, NK-1 receptor (Homo sapiens, UniProt P25103); test: NK-1 Receptor Binding Assay (125I-labeled substance P, IM9 cells); settings: for IC50: inhibits fifty percent of binding of 125I-substance P to IM9 cells
T1 construct: endogenous in cells; host or cells: IM9 cells (human cell line), whole cells
Procedure, shortened: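 Radioligand binding on human IM9 cells, ended by filtration over glass fiber filters presoaked in 0.1% polyethylenimine. Specific binding of labeled substance P defined with 20 nM unlabeled ligand.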

[2] = biological target: T2, human NK-2 receptor (Homo sapiens, UniProt P21452); test: NK-2 Receptor Binding Assay ([125I]iodohistidyl-neurokinin A, CHO-hNK-2R membranes); settings: for IC50: inhibits fifty percent of binding of [125I]iodohistidyl-neurokinin A to CHO-hNK-2R membranes; for NK-2 percent inhibition of binding: @ 10 μM
T2 construct: expressed in transfected cells; host or cells: CHO-hNK-2R cells (CHO-derived), membrane preparation
T2 sequence (P21452 1-398): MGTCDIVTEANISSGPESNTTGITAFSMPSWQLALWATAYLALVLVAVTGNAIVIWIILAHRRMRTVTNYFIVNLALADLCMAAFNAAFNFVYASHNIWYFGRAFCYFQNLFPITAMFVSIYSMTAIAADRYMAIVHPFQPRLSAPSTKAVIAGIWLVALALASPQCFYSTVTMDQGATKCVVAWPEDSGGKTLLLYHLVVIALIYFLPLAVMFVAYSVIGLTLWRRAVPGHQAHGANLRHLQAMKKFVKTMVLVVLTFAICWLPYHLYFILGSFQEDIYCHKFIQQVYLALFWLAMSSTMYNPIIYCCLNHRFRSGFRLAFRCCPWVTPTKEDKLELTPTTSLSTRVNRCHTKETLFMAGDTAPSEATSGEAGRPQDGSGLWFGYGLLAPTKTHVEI
Procedure, shortened: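 Membranes from CHO cells stably expressing human NK-2 receptor (~400,000/cell), 40 μg protein per sample, in 50 mM Tris pH 7.4 with 3 mM MnCl2, 0.02% BSA, 4 μg/ml chymostatin. Displacement of 20 pM [125I]iodohistidyl-neurokinin A, 1 hr at room temperature; GF/B filtration, gamma counting. Non-specific binding defined with 1 μM eledoisin.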

T1 sequence (P25103 whole entry): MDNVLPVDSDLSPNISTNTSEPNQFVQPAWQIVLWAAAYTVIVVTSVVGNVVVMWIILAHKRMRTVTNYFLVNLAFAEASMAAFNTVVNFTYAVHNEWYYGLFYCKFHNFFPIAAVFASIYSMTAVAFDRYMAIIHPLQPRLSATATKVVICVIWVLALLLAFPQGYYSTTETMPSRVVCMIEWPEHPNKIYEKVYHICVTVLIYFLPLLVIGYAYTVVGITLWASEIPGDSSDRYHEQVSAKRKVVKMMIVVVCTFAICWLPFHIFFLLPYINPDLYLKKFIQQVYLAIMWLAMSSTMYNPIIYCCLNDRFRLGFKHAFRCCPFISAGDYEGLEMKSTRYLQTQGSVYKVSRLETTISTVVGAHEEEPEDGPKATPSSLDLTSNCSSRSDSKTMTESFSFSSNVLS

IC50 [1]	IC50 [2]	Structure (SMILES)	other results
10 nM	120 nM	COc1ccccc1CN(CC(Cc1c[nH]c2ccccc12)NC(=O)CN1CCN(c2ccccc2)CC1)C(=O)CNC(=O)OC(C)(C)C (stereo not drawn) [Example 36]	
0.93 nM	1400 nM	COc1ccccc1CN(CC(Cc1cn(C)c2ccccc12)NC(=O)CN1CCC(N2CCCCC2)CC1)C(C)=O (stereo not drawn) [Example 124]	
65 nM	2400 nM	COc1ccccc1CN(CC(=O)O)CC(Cc1c[nH]c2ccccc12)NC(=O)CN1CCN(c2ccccc2)CC1 (stereo not drawn) [Example 11]	
14 nM	340 nM	COc1ccccc1CN(CC(Cc1c[nH]c2ccccc12)NC(=O)CNCCNc1ccccc1)C(C)=O (stereo not drawn) [Example 58]	
7.8 nM	1200 nM	COc1ccccc1CN(CC(Cc1cn(C)c2ccccc12)NC(=O)CN1CCN(c2ccccc2)CC1)C(C)=O (stereo not drawn) [Example 113]	
0.25 nM	1800 nM	CC(=O)N(Cc1ccccc1Cl)CC(Cc1c[nH]c2ccccc12)NC(=O)CN1CCC(N2CCCCC2)CC1 (racemic) [Example 47]	
9.6 nM	1000 nM	COc1ccccc1CN(CC(Cc1c[nH]c2ccccc12)NC(=O)CCC(=O)c1ccccc1)C(C)=O (racemic) [Example 95]	
19 nM	820 nM	COC(=O)CN(Cc1ccccc1OC)CC(Cc1c[nH]c2ccccc12)NC(=O)CN1CCN(c2ccccc2)CC1 (stereo not drawn) [Example 10]	
	3500 nM	CC(=O)NC(Cc1c[nH]c2ccccc12)CN(Cc1ccccc1)C(=O)CN1CCC(N2CCCCC2)CC1 (stereo not drawn) [Example 108]	NK-1 percent inhibition of binding ([1]; @ 1 μM): 76% @
9.2 nM	6200 nM	COc1ccccc1CN(CC(Cc1c[nH]c2ccccc12)NC(=O)CN1CCN(c2ccccc2)CC1)C(=O)CC(=O)O (stereo not drawn) [Example 31]	
30.1 nM	2100 nM	CC(=O)N(CCc1ccccc1)CC(Cc1c[nH]c2ccccc12)NC(=O)CN1CCC(N2CCCCC2)CC1 (stereo not drawn) [Example 54]	
	9500 nM	CC(=O)NC1(c2ccccc2)CCN(CC(=O)NC(Cc2c[nH]c3ccccc23)CN(C)C(=O)c2ccccc2)CC1 (stereo not drawn) [Example 156]	NK-1 percent inhibition of binding ([1]; @ 5 μM): 78% @
		COc1ccccc1CN(CC(N)Cc1ccccc1)C(C)=O (stereo not drawn) [Example 159]	NK-1 percent inhibition of binding ([1]; @ 5 μM): 54% @; NK-2 percent inhibition of binding [2]: 11 @ %
9.5 nM	2700 nM	CC(=O)N(Cc1ccccc1)CC(Cc1c[nH]c2ccc(F)cc12)NC(=O)CN1CCC(N2CCCCC2)CC1 (stereo not drawn) [Example 119]	
4.2 nM	1200 nM	CC(=O)N(Cc1ccccc1[N+](=O)[O-])CC(Cc1c[nH]c2ccccc12)NC(=O)CN1CCN(c2ccccc2)CC1 (stereo not drawn) [Example 16]	
25 nM		COc1ccccc1CNCC(Cc1c[nH]c2ccccc12)NC(=O)CN1CCC(N2CCCCC2)CC1 (stereo not drawn) [Example 44]	NK-2 percent inhibition of binding [2]: 54 % at
		COc1ccccc1CN(CC(Cc1ccccc1)NC(c1ccccc1)(c1ccccc1)c1ccccc1)C(C)=O (stereo not drawn) [Example 177]	NK-1 percent inhibition of binding ([1]; @ 10 μM): 0% @; NK-2 percent inhibition of binding [2]: 12% @
2.8 nM	3400 nM	COc1ccccc1CN(CC(Cc1c[nH]c2ccc(C)cc12)NC(=O)CN1CCC(N2CCCCC2)CC1)C(C)=O (stereo not drawn) [Example 126]	
13 nM	810 nM	CSc1ccc(CN(CC(Cc2c[nH]c3ccccc23)NC(=O)CN2CCN(c3ccccc3)CC2)C(C)=O)cc1 (stereo not drawn) [Example 23]	
7.5 nM	8900 nM	COc1ccccc1CN(CC(Cc1c[nH]c2ccccc12)NC(=O)CN1CCN(C)CC1)C(C)=O (stereo not drawn) [Example 71]	
1200 nM	490 nM	COc1ccccc1CNCC(Cc1c[nH]c2ccc(Br)cc12)NC(=O)CN1CCN(c2ccccc2)CC1 (stereo not drawn) [Example 111]	
69 nM	1400 nM	COc1ccccc1CN(C[C@H](Cc1c[nH]c2ccccc12)NC(=O)CN1CCN(C2CCCCC2)CC1)C(C)=O [Example 76]	
3.1 nM	1000 nM	CC(=O)N(Cc1ccccc1C)CC(Cc1c[nH]c2ccccc12)NC(=O)CN1CCN(c2ccccc2)CC1 (stereo not drawn) [Example 14]	
0.98 nM	1100 nM	COc1ccccc1CN(CC(Cc1c[nH]c2ccccc12)NC(=O)CN1CCN(c2ccccc2)CC1)C(=O)COC(C)=O (stereo not drawn) [Example 32]	
52 nM	1200 nM	COc1ccccc1CN(CC(CC1CNc2ccccc21)NC(=O)CN1CCN(c2ccccc2)CC1)C(C)=O (mixture of isomers) [Example 144]	
	210 nM	CC(C)(C)OC(=O)NCC(=O)N(CC1CCCCC1)CC(Cc1c[nH]c2ccccc12)NC(=O)CN1CCN(c2ccccc2)CC1 (stereo not drawn) [Example 154]	NK-1 percent inhibition of binding ([1]; @ 1 μM): 76% @

IC50 [1]	IC50 [2]	Structure (SMILES)	other results
4.6 nM	1200 nM	COc1cccc(CN(CC(Cc2c[nH]c3ccccc23)NC(=O)CN2CCN(c3ccccc3)CC2)C(C)=O)c1 (stereo not drawn) [Example 21]	
0.36 nM	1000 nM	COc1ccccc1CN(CC(Cc1c[nH]c2ccccc12)NC(=O)CN1CCN(C2CCCCC2)CC1)C(C)=O (stereo not drawn) [Example 74]	
	17600 nM	COc1ccccc1CN(CC(Cc1ccccc1)NC(=O)CBr)C(C)=O (stereo not drawn) [Example 161a]	NK-1 percent inhibition of binding ([1]; @ 5 μM): 77% @
27 nM	2500 nM	COc1ccccc1CNCC(Cc1c[nH]c2cc(F)ccc12)NC(=O)CN1CCC(N2CCCCC2)CC1 (stereo not drawn) [Example 123]	
220 nM	2700 nM	COc1ccccc1CNCC(CC1CNc2ccccc21)NC(=O)CN1CCN(c2ccccc2)CC1 (mixture of isomers) [Example 137]	
7.2 nM	600 nM	COc1ccccc1CN(CC(Cc1c[nH]c2ccccc12)NC(=O)CN1CCC(c2ccccc2)CC1)C(C)=O (stereo not drawn) [Example 65]	
1 nM	680 nM	COC(=O)CC(=O)N(Cc1ccccc1OC)CC(Cc1c[nH]c2ccccc12)NC(=O)CN1CCN(c2ccccc2)CC1 (stereo not drawn) [Example 30]	
		COc1ccccc1CN(CC(NC(=O)CBr)c1ccccc1)C(C)=O (stereo not drawn) [Example 161]	NK-1 percent inhibition of binding ([1]; @ 5 μM): 24% @; NK-2 percent inhibition of binding [2]: 0% @
	21000 nM	CC(=O)N(CC(Cc1c[nH]c2ccccc12)NC(c1ccccc1)(c1ccccc1)c1ccccc1)c1ccccc1 (stereo not drawn) [Example 167]	NK-1 percent inhibition of binding ([1]; @ 5 μM): 0% @ 5 μM
74 nM	490 nM	COc1ccccc1CN(CC(Cc1c[nH]c2ccccc12)NC(=O)CN1CCc2ccccc21)C(C)=O (stereo not drawn) [Example 63]	
	5200 nM	CC(=O)N(CC(Cc1c[nH]c2ccccc12)NC(=O)CN1CCC(N2CCCCC2)CC1)c1ccccc1 (stereo not drawn) [Example 53]	NK-1 percent inhibition of binding ([1]; @ 5 μM): 58% @
13 nM	1000 nM	COc1ccccc1CN(CC(Cc1c[nH]c2ccccc12)NC(=O)CN1CCN(c2cccc(C(F)(F)F)c2)CC1)C(C)=O (stereo not drawn) [Example 70]	
	12200 nM	CN(CC(Cc1c[nH]c2ccccc12)NC(=O)CN1CCC(N2CCCCC2)CC1)C(=O)c1ccccc1 (stereo not drawn) [Example 155]	NK-1 percent inhibition of binding ([1]; @ 5 μM): 63% @
170 nM	1200 nM	COc1ccccc1CN(CC(Cc1c[nH]c2ccccc12)NC(=O)CCc1ccccc1)C(C)=O (racemic) [Example 89]	
0.75 nM	650 nM	CCC(=O)N(Cc1ccccc1OC)CC(Cc1c[nH]c2ccccc12)NC(=O)CN1CCN(c2ccccc2)CC1 (stereo not drawn) [Example 26]	
7.3 nM	3700 nM	COc1ccccc1CN(CC(Cc1c[nH]c2ccccc12)NC(=O)CN1CCCC1)C(C)=O (stereo not drawn) [Example 59]	
210 nM		CC(NCC(Cc1c[nH]c2ccccc12)NC(=O)CN1CCC(N2CCCCC2)CC1)c1ccccc1 (stereo not drawn) [Example 102]	NK-2 percent inhibition of binding [2]: 59% @
		COc1ccccc1CN(CC(NC(c1ccccc1)(c1ccccc1)c1ccccc1)c1ccccc1)C(C)=O (stereo not drawn) [Example 175]	NK-1 percent inhibition of binding ([1]; @ 5 μM): 28% @; NK-2 percent inhibition of binding [2]: 9% @
82 nM	3700 nM	CC(=O)N(CC(Cc1c[nH]c2ccccc12)NC(=O)CN1CCC(N2CCCCC2)CC1)C(C)c1ccccc1 (stereo not drawn) [Example 103]	
7.3 nM	3000 nM	COc1ccccc1CN(CC(Cc1c[nH]c2cc(C)ccc12)NC(=O)CN1CCC(N2CCCCC2)CC1)C(C)=O (stereo not drawn) [Example 127]	
	6200 nM	CC(=O)N(C)CC(Cc1c[nH]c2ccccc12)NC(c1ccccc1)(c1ccccc1)c1ccccc1 (stereo not drawn) [Example 164]	NK-1 percent inhibition of binding ([1]; @ 5 μM): 0% @ 5 μM
	6400 nM	COc1ccccc1CNCC(Cc1ccccc1)NC(c1ccccc1)(c1ccccc1)c1ccccc1 (stereo not drawn) [Example 174]	NK-1 percent inhibition of binding ([1]; @ 5 μM): 0% @ 5 μM
	13900 nM	COc1ccccc1CNCC(Cc1c[nH]c2cc(C)ccc12)NC(c1ccccc1)(c1ccccc1)c1ccccc1 (stereo not drawn) [Example 169]	NK-1 percent inhibition of binding ([1]; @ 5 μM): 8% @ 5 μM
0.89 nM	600 nM	COc1ccccc1CN(CC(Cc1c[nH]c2ccccc12)NC(=O)CN1CCN(c2ccccc2)CC1)C(=O)CN(C)C (stereo not drawn) [Example 35]	
74 nM	2000 nM	COc1ccccc1CNCC(NC(c1ccccc1)(c1ccccc1)c1ccccc1)c1ccccc1 (stereo not drawn) [Example 173]	
